Assay results published in US11925645B2, “Enhanced caffeinated beverage composition” (Ortho-Nutra, LLC, priority 2013, dated 2024).
Like-named read-outs stand apart in the source and are kept apart here.

How the values were obtained:
[1] = Acute randomized placebo-controlled crossover trial of 200 mg TeaCrine: anchored VAS questionnaires; type: in vivo, human
Description: In order to examine the beneficial experiential effects and psychometric properties of theacrine supplementation in healthy subjects, explore optimal dosing and potential cumulative effects in a healthy human cohort with a 7-day, sub-acute repetitive dosing protocol, and acquire preliminary data on various biomarkers of safety and tolerability, an experiment was performed. […] A subset of 6 subjects underwent a separate 7-day, open-label, repeated dose study comparing 100 mg, 200 mg and 400 mg of TC. The experiment was a randomized, placebo-controlled, double-blind, within-subject crossover clinical trial (for N=15 study). A further subset study was open-label, sub-acute (7-day), repetitive dosing trial (for N=6 subset). Six (6) subjects provided written and dated informed consent to participate in the 7-day repetitive dosing study between Dec. 15, 2012 and Feb. 21, 2013. A separate cohort of fifteen (15) subjects provided written and dated informed consent for the acute dose, placebo-controlled, crossover clinical trial. All subjects were in good health as determined by physical examination and medical history, between the ages of 18 and 45 (inclusive). […] Subjects were willing and able to comply with the experimental and supplement protocol. […] Physical activity levels and health history were determined using standardized questionnaires. Heart rate and blood pressure were measured using an Omron HEM-780. Standing height was determined using a wall-mounted stadiometer. […] Medical Scale. A 100 mm anchored VAS questionnaire for energy, fatigue, and concentration was distributed at each acute lab session; additional VAS questionnaires were distributed for the daily assessment over a 6-hour period during the 7-day subset study. Quest Diagnostics (Pittsburgh, Pa.) was utilized to transport and analyze all blood samples. […] Statistical Analyses for Example 1. Descriptive statistics (mean, median, SD, 95% CIs) were used to quantify subjects physical characteristics. RM ANOVA, as well analyses of co-variance (ANCOVA), using baseline scores as the co-variate (respectively), were used to analyze between trial differences. Alpha was set to 0.05 (P≤0.05) for statistical significance, and <0.10 for trends. Effect sizes were also calculated. Upon arrival for the first testing session, subjects were randomly assigned to receive their respective supplement/placebo. Each subject ingested the sponsor recommended dosage of their respective supplement (1 capsule prior to schedule of assessments). Supplements were prepared in capsule form and packaged in coded generic containers for double-blind administration.

[2] = Theacrine-caffeine interaction study: single oral dose plasma pharmacokinetics (LC-MS/MS, noncompartmental); type: in vivo, human; settings: for Vd/F: read-out: Vd/F; for MRT: read-out: MRT; for half-life: read-out: t1/2 (converted)
Text: Theacrine pharmacokinetics in humans has not been systematically characterized. Therefore, one purpose of this study, among others, was to determine theacrine pharmacokinetics and dose-linearity following oral administration in humans.
Eight healthy nonsmokers, including 4 men and 4 women, were recruited for the experiment.
Study Design and Procedures. […] Theacrine, administered as iTeaCrine.®, was provided by Compound Solutions (Carlsbad, Calif). […] Treatment sequence was randomized using a 4×4 Latin square. There was an approximate 1-week washout period between treatments for all subjects.
Test Visit Procedures. […] A catheter was inserted into the forearm vein for blood sampling. Duplicate measurements of resting heart rate and blood pressure were taken pre-dose and prior to each timed blood sample. In addition, respiratory rate was counted in one minute and body temperature was measured using an ear scanning thermometer (dual readings taken at each time).
All subjects were instructed to consume their usual diet throughout the study period, with the exception of the actual days of testing. During the two days prior to each test day, subjects recorded all food and drink consumed and attempted to mimic this intake for the two-day period prior to subsequent visits. Diet records were analyzed using nutrient analysis software (Food Processor SQL, version 9.9; ESHA Research, Salem, Oreg.). For the actual test days, standardized meals (meal replacement food bars [Clif “Builder's 20 g Protein Bar”] and ready-to-drink shakes [Orgain Organic Nutrition™]) were provided to the subjects after sample collection at hour 2 and hour 6 (one shake and one-half bar at each time). Subjects were also provided with adequate meal replacement bars and shakes to consume following the 8 hour sample collection. (during their time outside the lab). Each bar contained 280 calories, 10 grams of fat, 29 grams of carbohydrate, and 20 grams of protein. Each shake contained 250 calories, 7 grams of fat, 32 grams of carbohydrate, and 16 grams of protein. No food other than what was provided to the subjects was allowed during each study day, including both time spent in the lab and outside the lab. […] The subjects returned the following morning for the 24 hour blood collection, again in a 10 hour fasted state. The same volume of meal replacement bars or shakes was consumed by each subject during each visit (both in lab and outside lab).
Pharmacokinetic Study. Plasma concentration-time data were evaluated using noncompartmental methods in Phoenix WinNonlin (version 7.0; Pharsight Corporation, Mountain View, Calif) with adjustment for lag time after oral administration. The maximum concentration (Cmax), lag time (talag), and time of maximum concentration (tmax) were determined from the plasma concentration versus time data. The area under the plasma concentration-time curve from time 0 to infinity (was calculated using the trapezoidal rule extrapolated to time infinity). […] The oral clearance (CL/F) was calculated by dividing the oral dose by AUC0-∞. The apparent volume of distribution during the terminal elimination phase (Vz/F) was calculated by dividing CL/F by k. […]

[3] = Single dose theacrine, caffeine or combination: subjective feelings on 10 cm visual analog scale; type: in vivo, human
Description: Subjects rated their subjective feelings using a 10 cm visual analog scale at 30 minutes, 1, 2, 3, 4, and 5 hours post ingestion and performed the trail making test (TMT) of cognitive performance at baseline and at hours 2 and 4 post ingestion.

A1 and A2A AR = settings: rats; cited from earlier work
[4] = both sexes, human, plasma, po, 125 mg
[5] = theacrine 125 mg + caffeine 150 mg versus theacrine 125 mg
[6] = theacrine with caffeine co-administration versus theacrine alone

Vd/F ([2]; both sexes, human, plasma, oral, theacrine, Condition 4: Theacrine 125 mg + Caffeine 150 mg, mean ± SD): 35.4 L | dose-adjusted Cmax ([2]; both sexes, human, plasma, po, 25 mg, Cmax, theacrine in plasma, Condition 1: Theacrine 25 mg single oral dose, dose-adjusted, mean ± SD): 34.1 ± 38.9 ng/mL/mg | Vd/F ([2]; both sexes, human, plasma, po, 25 mg, theacrine, Condition 1: Theacrine 25 mg single oral dose, mean ± SD): 48.1 ± 23.4 L | Tmax [2, 4]: 1.8 h | dose-adjusted Cmax ([2]; both sexes, human, plasma, po, 125 mg, Cmax, theacrine in plasma, Condition 2: Theacrine 125 mg single oral dose, dose-adjusted, mean ± SD): 25.6 ± 5.5 ng/mL/mg | Vd/F ([2]; both sexes, human, plasma, po, 125 mg, theacrine, Condition 2: Theacrine 125 mg single oral dose, mean ± SD): 50.5 ± 0.49 L | MRT [2, 4]: 36.8 ± 18.9 h | half-life [2, 4]: 26.1 ± 13.7 h | dose-adjusted Cmax ([2]; both sexes, human, plasma, po, Cmax, theacrine in plasma, Condition 4: Theacrine 125 mg + Caffeine 150 mg single oral dose, dose-adjusted, mean ± SD): 38.6 ± 16.6 ng/mL/mg | MRT ([2]; both sexes, human, plasma, theacrine, Condition 1: Theacrine 25 mg single oral dose, mean ± SD): 24.9 ± 3.5 h | half-life ([2]; both sexes, human, theacrine in plasma, Condition 1: Theacrine 25 mg single oral dose, mean ± SD): 16.5 ± 2.4 h | Tmax ([2]; both sexes, human, theacrine in plasma, Condition 1: Theacrine 25 mg single oral dose, median (range)): 1.8 h | time to reach maximal concentration ([2]; oral administration of theacrine alone): ≤ 2 h | decrease of theacrine oral clearance (CL/F) by caffeine [2, 5]: approximately 30% | decrease of theacrine oral volume of distribution (Vd/F) by caffeine [2, 5]: approximately 30% | theacrine absorption rate (Tmax) and half-life (t1/2) under caffeine co-administration ([2]; theacrine 125 mg + caffeine 150 mg versus theacrine alone): unaffected | absorption following oral administration ([2]; theacrine alone): well absorbed | dose-adjusted theacrine pharmacokinetic parameters, 25 mg versus 125 mg ([2]; theacrine alone): not significantly different | AUC ([2]; theacrine in plasma, Condition 1: Theacrine 25 mg single oral dose, dose-adjusted, mean ± SD): 809 ± 923 ng·h/mL/mg | AUC ([2]; theacrine in plasma, Condition 2: Theacrine 125 mg single oral dose, dose-adjusted, mean ± SD): 736 ± 312 ng·h/mL/mg | dose-adjusted Cmax ([2]; theacrine in plasma, Condition 4: Theacrine 125 mg + Caffeine 150 mg single oral dose, dose-adjusted, mean ± SD): 37.7 ± 16.5 ng/mL/mg | AUC ([2]; theacrine in plasma, Condition 4: Theacrine 125 mg + Caffeine 150 mg, dose-adjusted, mean ± SD): 1,242 ± 1,129 hr * ng/mL/mg | geometric mean ratio of AUC [2, 6]: 1.1 ±0.03 | geometric mean ratio of Cmax [2, 6]: 1.1 ±0.06 | CL/F ([2]; theacrine, Condition 1: Theacrine 25 mg single oral dose, mean ± SD): 2.0 ± 0.9 L/h | CL/F ([2]; theacrine, Condition 2: Theacrine 125 mg single oral dose, mean ± SD): 1.6 ± 0.5 L/h | CL/F ([2]; theacrine, Condition 2: Theacrine 125 mg single oral dose, mean ± SD, listed as theacrine): 1.6 ± 0.49 L/h | CL/F ([2]; theacrine, Condition 4: Theacrine 125 mg + Caffeine 150 mg, mean ± SD): 1.2 ± 0.6 L/h | CL/F ([2]; theacrine, Condition 4: Theacrine 125 mg + Caffeine 150 mg, mean ± SD, listed as theacrine): 1.2 L/h | AUC ([2]; theacrine, theacrine 125 mg alone): 740 ± 310 ng·h/mL/mg | AUC ([2]; theacrine, with caffeine co-administration (theacrine 125 mg + caffeine 150 mg)): 1200 ± 1100 ng·h/mL/mg
Compound: Cn1c(=O)c2c(n(C)c1=O)n(C)c(=O)n2C [Theacrine, 1,3,7,9-tetramethylpurine-2,6,8-trione]
concentration (VAS) ([1]; 200 mg dose of TC, single dose, trend, vs. PLA −[…], P=0.07): +2.4% | fatigue (VAS) ([1]; 200 mg dose of TC, single dose, vs. PLA +5.8%, P=0.04): −6.7% | energy (VAS) ([1]; 200 mg dose of TC, single dose, vs. PLA −5.7%, P=0.049): +8.6% | perceived energy on VAS (FIG. 2) ([1]; 1, 2 and 3 hours after administration, vs placebo): higher levels of energy | perceived fatigue on VAS (FIG. 3) ([1]; 60 minutes after administration, vs placebo): lower levels of fatigue | time post-ingestion at which increase in subjective focus reached statistical significance ([3]; 125 mg theacrine treatment): 3 h | safety and improvement of subjective feelings related to energy ([3]; alone at 125 mg or in combination with caffeine): safe and effective | theacrine stimulating activity under a cocktail containing both A1 and A2A AR antagonists (A1 and A2A AR): blocks
